Measurements reported in US9814732B2, “Ulipristal acetate for prevention and treatment of breast tumors” (LABORATOIRE HRA-PHARMA, priority 2012, dated 2017).

Experiments:
hPR-A and hPR-B = experiment: MMTV-Luc reporter gene transactivation in HBE cells transfected with hPR-A and/or hPR-B; assay type: cell-based, human
Method: T-47D and MCF-7 cell lines were respectively maintained in RPMI 1640 and in DMEM medium supplemented with 10% fetal calf serum (PAA Laboratory, Les Mureaux, France). […] Normal human breast epithelial cell (HBE) primary cultures were obtained from 20 women (aged 17-50 years). […] HBE cells were maintained in HAM F10 medium (PAA Laboratory, Les Mureaux, France) containing hydrocortisone (5 ng/ml), Triiodo-L-thyronine (6.5 ng/ml), choleratoxin (10 ng/ml), transferrin (5 mg/ml), insulin (0.016 U/ml), epidermal growth factor (10 ng/ml) (Sigma, St Quentin Fallavier, France) and 5% human serum (Etablissement Français du Sang).
After seeding, cells were cultured for 24 h in serum and phenol red free medium. Then treatments were carried out in a phenol red free medium containing 5% dextran-charcoal stripped serum. […] Control cells were treated with ethanol, at 10 1:1000 final ethanol concentration alone as vehicle or E2 (10 nM).
Cells were transfected with reporter gene plasmids containing glucocorticoid and progesterone responsive elements (GRE/PRE): 1) the MMTV-Luc is a Mouse Mammary Tumor Virus Long Terminal Repeat promoter containing one GRE/PRE palindrome and three GRE/PRE hemi-palindromes upstream to firefly luciferase gene in pFC31 vector, 2) the GRELuc contains six copies of GRE/PRE palindrome upstream to firefly luciferase gene in pBL vector. When indicated, HBE cells were transfected with human PR isoforms hPR-A and hPR-B expression plasmids constructed in POP3 vectors. Rous Sarcoma Virus promoter upstream to beta galactosidase gene (pRSV-β-Gal) was transfected in each experiment as control. Transfections were performed according to the manufacturer instructions using Lipofectamine or Lipofectamine LTX Reagents (Invitrogen, Cergy-Pontoise, France) for breast cancer cell lines or HBE cells, respectively. After 24 h of transfection, breast cancer and HBE cells were treated with hormones for 24 h or 48 h, respectively. At the end of the experiment, cells were lysed and luciferase activity was determined using the Luciferase Assay System (Promega, Charbonnières-les-bains, France). Beta galactosidase activity was assessed using the Galacto Star kit (Applied Biosystems, Courtaboeuf, France) to normalize luciferase activity data.

[1] = system: normal human breast tissues xenografts; experiment: Ki67 mitotic index in normal human breast tissue xenografted in athymic mice; assay type: in vivo; conditions: E2+P+UPA vs E2 and E2+P groups, lobules and ducts, UPA 20 mg pellet, 28 days
Excerpt: Breast tissues samples were obtained from 6 women (aged 29-42 years) undergoing surgery for reduction mammoplasty, with their informed consent according to the French law on clinical experimentation.
Four weeks old ovariectomized female NMRInu/nu 20 athymic mice were purchased from Janvier laboratory (Le Genest Saint Isle, France). Breast tissues samples were obtained from 6 women (aged 29-42 years). Human mammary gland tissue was cut into 2×2×2 mm fragments and 4 fragments were then subcutaneously xenografted onto the back of 4 mice per group. Four treatment groups were performed: control, E2, E2+P and E2+P+UPA. Treatments were administered by grafting steroid pellets onto the neck of each mouse. The experimental conditions were initially determined by using a dose range of hormones mixed with cholesterol into the pellets. Blood sample assays were performed after 2 weeks and 4 weeks of treatment to measure plasmatic hormonal concentrations. Finally, the dose of 0.3 mg for E2 and 20 mg for P and UPA were used, as it provides the expected blood concentrations. For the control groups, pellets containing only cholesterol were used. To reproduce menstrual cycle conditions, mice were grafted on the first day of experiment with cholesterol, E2 and/or UPA containing pellets and on the fourteen day with cholesterol or progesterone containing pellets in control and E2 groups, or in E+P and E2+P+UPA groups, respectively. Twenty eight days after the start of experiment, mice were sacrificed. Blood was collected for each mouse, and serum was frozen at −20° C. until hormone concentrations
Mitotic index was calculated using the Ki67 antibody, and was determined for each breast tissue grafted into mice. Immunohistochemical analyses were performed using the BOND-MAX workstation (Leica, Nanterre, France). Paraffin sections of breast tissue xenografts were de-waxed and rehydrated before antigen retrieval using citrate retrieval solution (pH 6.0) for Ki67 antibody or EDTA retrieval solution (pH 9.0) for PR and ERalpha antibodies, for 30 min. […]

[2] = system: GR target genes (IEX-1, G0S8, cyclin A, BCL2); experiment: qRT-PCR mRNA expression of GR target genes in HBE cells; assay type: cell-based, human
Method: (§1) After seeding, cells were cultured for 24 h in serum and phenol red free medium. Then treatments were carried out in a phenol red free medium containing 5% dextran-charcoal stripped serum. Cells were treated with P or DEX (100 nM), alone or in combination with UPA, RU (1 nM to 1 μM) or CDB-3877 (100 nM). Control cells were treated with ethanol, at […] 1:1000 final ethanol concentration alone as vehicle or E2 (10 nM).
Total RNA was extracted using TriZOL Reagent (Invitrogen, Cergy-Pontoise, France).
2 μg of total RNA was subjected to reverse transcription (RT) using random primers for 1 h at 37° C. 2 μl of RT product was diluted (1:10) and subjected to quantitative PCR using sequence specific primers (300 nM) and Brillant SYBR GREEN QPCR master mix (Fermentas, Saint-Rémy-lès-Chevreuse, France) on an Mx3000P apparatus (Agilent Technologies, Massy, France). Conditions were 1 cycle at 95° C. for 10 min followed by 40 cycles at 95° C. for 30 sec, 60° C. for 1 min and 72° C. for 30 sec. Gene expression values were normalized to the housekeeping gene 36B4. Time of steroid treatment was chosen to get the optimal stimulation for a given gene. ALPL and G0S8 mRNA were analyzed after 6 h of treatment. IEX-1, FASN, and BCL2 were analyzed after 24 h of treatment. Cyclin A mRNA was analyzed after 24 h for GR responses or 48 h for PR responses.

T-47D cells [3] = experiment: Apoptosis, sub-G1 quantification by flow cytometry in T-47D cells; assay type: cell-based, human; conditions: 48 h
Method: as §1
After 96 h or 48 h of hormonal treatment, respectively, for HBE or MCF-7 and T-47D cells, cells were washed in PBS, matrix dissociated with accutase enzyme (PAA laboratory, Les Mureaux, France), and centrifuged 5 minutes at 1350 rpm. Cells were fixed and frozen at −20° C. in 70% ethanol. Before analysis, cells were washed in PBS and stained with 10 μg/ml propidium iodide in PBS (containing 0.835 U/ml RNase A) (Sigma, St Quentin Fallavier, France). For each sample at least 10 000 cells were counted in a BD LSR II flow cytometer (BD Biosciences, Le Pont de Claix, France). After gating out doublets and debris, cycle distribution was analyzed using the ModFit LT software (Verity Software House, USA).

T-47D cells [4] = experiment: Tritiated thymidine incorporation (proliferation) in T-47D cells; assay type: cell-based, human; conditions: 48 h
Method: as §1
After 24 h of hormonal treatment, cells were incubated with [methyl-1 3H] thymidine (Perkin Elmer, Courtaboeuf, France) for 48 h or 20 h for KBE or cancer cells, respectively at 37° C. After incubation cells were washed twice with PBS 1× and once with 5% trichloroacetic acid (TCA). Cells were incubated in 5% TCA for 15 min at 4° C. and lysed in NaOH 0.1 N for 30 min at 37° C. The total cell lysate was added to 5 ml of Ecolite scintillation liquid (MP biomedical, Illkirch, France) and radioactivity was counted with a β-counter HIDEX 300SL (ScienceTec, Courtaboeuf, France).

CC(=O)O[C@]1(C(C)=O)CCC2C3CCC4=CC(=O)CCC4=C3[C@@H](c3ccc(N(C)C)cc3)C[C@@]21C (some centres unmarked) [UPA, 17[…]-acetoxy-11[…]-[4-N,N-dimethylamino-phenyl)-19-norpregna-4,9-diene-3,20-dione]
inhibition of P induced MMTV-Luc transactivation (hPR-A and hPR-B; HBE cells co-transfected with hPR-A and hPR-B, P 100 nM, antagonist 1 to 1000 nM): inhibited P induced MMTV11 Luc transactivation in a dose dependent manner from 1 000 to 10 nM | antagonist performance between PR isoforms (MMTV-Luc) (hPR-A and hPR-B; HBE cells transfected with only hPR-A or hPR-B): No difference with increasing the levels of each PR isoform was seen on UPA antagonist performance | lowest concentration necessary to exert a complete antagonist activity (hPR-A and hPR-B; HBE cells, MMTV-Luc, P 100 nM): A hundred | progestational agonist properties on reporter gene transcription (hPR-A and hPR-B; HBE cells, compound alone): did not exhibit progestational agonist properties | proliferation rate (Ki67) of normal epithelial breast cells [1]: does not significantly influence the proliferation rate | G0S8 mRNA expression ([2]; DEX and/or UPA 100 nM, 6 h): slight and non-significant antagonist effect | BCL2 mRNA expression (GR response) ([2]; DEX and/or UPA 100 nM, 24 h): did not reverse the DEX down-regulation of BCL2 mRNA | IEX-1 mRNA expression ([2]; DEX and/or UPA 100 nM, 24 h): did not antagonize this response | cyclin A mRNA expression (GR response) ([2]; DEX and/or UPA 100 nM, 24 h): partially inhibited DEX effect on cyclin A mRNA expression | glucocorticoid agonist activity on GR target genes ([2]; UPA 100 nM alone): did not display any glucocorticoid agonist activity | cell apoptosis (sub-G1 percentage), compound alone (T-47D cells [3]; 100 nM): had no apoptotic or survival properties by itself | effect of UPA on P-mediated apoptosis (T-47D cells [3]; P 100 nM + UPA 100 nM): tended to inhibit this effect | cell proliferation ([3H] thymidine incorporation), compound alone (T-47D cells [4]; 100 nM): had no effect on proliferation | effect of UPA on P-mediated proliferation change (T-47D cells [4]; P 100 nM + UPA 100 nM): reversed P anti-proliferative activity
